Results from paper PMC6691788, “Design and synthesis of phthalazine-based compounds as potent anticancer agents with potential antiangiogenic activity via VEGFR-2 inhibition” (Journal of Enzyme Inhibition and Medicinal Chemistry, 2019).
Like-named read-outs stand apart in the source and are kept apart here.

Columns and labels:
VEGFR-2 = conditions: cited from earlier work
VEGFR-2 tyrosine kinase = target: T1, VEGFR-2 tyrosine kinase (Homo sapiens, UniProt P35968); test: In vitro VEGFR-2 tyrosine kinase assay (BPS Bioscience); assay type: biochemical; conditions: for IC50: 10 μM ATP/0.2 mg/ml poly-Glu-Tyr; for inhibition at 10 µM: read-out: VEGFR-2 % inhibition, 10 μM concentration
T1 construct: purchased BPS Bioscience 40301
Method: The VEGFR tyrosine kinase assays were performed at BPS Bioscience (www.bpsbioscience.com). All the synthesised compounds representing the six series were evaluated for their ability to inhibit VEGFR-2 tyrosine kinase at single dose of 10 µM.
The VEGFR tyrosine kinase activity at single dose concentration of 10 μM was carried out by BPS Bioscience (www.bpsbioscience.com). VEGFR (BPS#40301) served as the enzyme source and Poly (Glu, Tyr) sodium salt, (4:1, Glu:Tyr) (Sigma#P7244) served as the standardized substrate & Kinase-Glo Plus Luminescence kinase assay kit (Promega#V3772). The IC50 determination was carried out where quality control testing is routinely performed on each of the targets to insure compliance to acceptable standards. ^33P-ATP was purchased from Perkin Elmer and ADP-Glo^TM was purchased from Promega. All other materials were of standard laboratory grade.
The VEGFR tyrosine kinase activity was performed using Kinase-Glo Plus luminescence kinase assay kit (Promega). It measures kinase activity by quantitating the amount of ATP remaining in solution following a kinase reaction. The luminescent signal from the assay is correlated with the amount of ATP present and is inversely correlated with the amount of kinase activity. The compounds were diluted to 100 μM in 10% DMSO and […] of the dilution was added to a […] reaction so that the final concentration of DMSO is 1% in all of reactions. All of the enzymatic reactions were conducted at 30 °C for 40 min. The 50 μl reaction mixture contains […], pH 7.4, […], 0.1 mg/ml BSA, 0.2 mg/ml Poly (Glu, Tyr) substrate, 10 μM ATP and VEGFR. After the enzymatic reaction, […] of Kinase-GloPlus Luminescence kinase assay solution (Promega) was added to each reaction and incubate the plate for 5 min at room temperature. Luminescence signal was measured using a BioTek Synergy 2 microplate reader. The protein kinase assays used to determine IC50 value were performed using ADP-GloTM assay kit from Promega which measures the generation of ADP by the protein kinase. Generation of ADP by the protein kinase reaction leads to an increase in luminescence signal in the presence of ADP-GloTM assay kit. The assay was started by incubating the reaction mixture in a 96-well plate at 30 °C for 30 min. After the 30 min incubation period, the assay was terminated by the addition of […] of ADP-GloTM Reagent (Promega). The 96 well plate was shaken and then incubated for 40 min at ambient temperature. […] of Kinase detection reagent was added, the 96-well reaction plate was then read using the ADP-Glo Luminescences Protocol on a GloMax plate reader (Promega: Catalog #E7031). Blank control was set up that included all the assay components except the addition of appropriate substrate (replace with equal volume of kinase assay buffer). The corrected activity for each protein kinase target was determined by removing the blank control value.
VEGFR activity assays were performed in duplicate at each concentration. The luminescence data were analyzed using the computer software, Graphpad Prism. The difference between luminescence intensities in the absence of VEGFR (Lut) and in the presence of VEGFR (Luc) was defined as 100% activity (Lut - Luc). […] IC50 determination for inhibitor against VEGFR was estimated by generating a graph of log inhibitor vs normalized response with variable using the Prism software.

HCT-116 = test: In vitro cytotoxic activity, SRB assay; assay type: cell-based; conditions: Homo sapiens; HCT-116, 48h
Method: (§1) In addition, compounds (12a, 12b, 12c, 16b, 16c and 17b) were evaluated against a third cell line (HepG-2) These first two cell lines were selected based on the sensitivity of the previously NCI-tested derivatives towards them amongst the 60 NCI panel. The growth inhibition is expressed as the median growth inhibitory concentration (IC50) which corresponds to the concentration required for 50% inhibition of cell viability and are provided in (Table S6 in supplementary material).
(§2) 5,000 cells in fresh medium were seeded in 96-well microlitre plates and left to attach for 24h. Cells were incubated with the tested compounds at concentration range from 0,1,2.5,5,10 µg/ml and incubation was continued for48h. After 48h treatment,the cells were fixed with 50µl cold 50% trichloroacetic acid (TCA )for 1h at 4 °C. Wells were then washed 5 times with water and stained for 30 min at room temperature with 50µl of 0.4%SRB dissolved in 1% acetic acid. The wells were then washed 4 times with 1% acetic acid. The plates were air dried and the dye was solubilized with 100µl/well of 10mM tris base (pH 10.5) for 5min on a shaker (Orbital Shaker OS 20,Boeco,Germany) at 1600 rpm. The optical density (O.D.)of each well was measured spectrophotometrically at 564 nm with an enzyme linked immunosorbent assay( ELIZA) micraplate reader (Tecan Sunrise,Austria).The mean back ground absorbance was subtracted automatically and mean values for each drug concentration was calculated.
(§3) The percentage of cell survival was calculated as follows:
(§4) Survival fraction =O.D.(treated cells)/O.D.(control cells)
(§5) The IC50 value (the concentration required to produce 50% inhibition of cell growth) was calculated using sigmodial dose response curve-fitting models (GraphPad,Prizm software incorporated). Each concentration was repeated 3 times.

MCF-7 = test: In vitro cytotoxic activity, SRB assay; assay type: cell-based; conditions: Homo sapiens, MCF7; MCF-7, 48h
Method: as §1, §2, §3, §4, §5

HepG-2 = test: In vitro cytotoxic activity, SRB assay; assay type: cell-based; conditions: Homo sapiens, HepG2; HepG-2, 48h
Method: as §1, §2, §3, §4, §5

HUVEC = test: In vitro HUVEC anti-proliferative assay (alamarBlue); assay type: cell-based, human; conditions: HUVEC proliferation, single dose 10 µM, 72 hours; for inhibition at 10 µM: Homo sapiens, read-out: % Cell inhibition
Method: The assay was performed at single dose concentration of 10 µM, where HUVEC umbilical vein endothelial cells, human (Life Technologies # C-003-5C) served as the cells’ source, in Medium 200 (Life Technologies # M-200-500), with large vessel endothelial supplement (LVES) (Life Technologies # A14608-01) and Pen-step (Hyclone # SV30010). AlamarBlue (Life Technologies # DAL1025) was used as the fluorescent reagent.
HUVEC cells were cultured in Medium 200 with 2% LVES and 1% Pen-strep. To perform the proliferation assay, HUVEC cells were seeded at 5000 cells/ 50µl /well in a 96-well black clear-bottom tissue culture plate. Cells were incubated at 37°C and 5% CO2 overnight to allow them to recover and reattach.
Next day cells were treated with test compounds for 72 hours. After treatment, cell proliferation was measured by Fluorescent quantitation of alamarBlue reagent. The alamarBlue assay incorporates a fluorometric/colorimetric growth indicator based on detection of metabolic activity. Specifically, resazurin, the active ingredient in the alamarBlue reagent, is blue in color and virtually non-fluorescent. Upon entering cells, resazurin is reduced to resorufin, a compound that is red in color and highly fluorescent. Continued cell growth maintains a reduced environment, therefore increasing the overall fluorescence and color of the media surrounding cells. […] To perform the alamarBlue assay, 10 µl of alamarBlue reagent was added to each well and the plate was incubated at 37°C for an additional 2 hours. Fluorescence intensity was measured at an excitation of 530 nm and an emission of 590 nm using a BioTek Synergy^TM 2 microplate reader.
Cell proliferation assays were performed in triplicate at each concentration. The fluorescent intensity data were analyzed using the computer software, Graphpad Prism. In the absence of the compound, the fluorescent intensity (Ft) in each data set was defined as 100%. In the absence of cells, the fluorescent intensity (Fb) in each data set was defined as 0%. The percent cell in the presence of each compound was calculated according to the following equation: %cell = (F-Fb)/(Ft-Fb), where F= the fluorescent intensity in the presence of the compound, Fb= the fluorescent intensity in the absence of cells, and Ft = the fluorescent intensity in the absence of the compound.

VEGFR-3 = system: VEGFR-3; set-up: method as in PMID 24565910; conditions: cited from earlier work

T1 sequence (P35968 20-1356): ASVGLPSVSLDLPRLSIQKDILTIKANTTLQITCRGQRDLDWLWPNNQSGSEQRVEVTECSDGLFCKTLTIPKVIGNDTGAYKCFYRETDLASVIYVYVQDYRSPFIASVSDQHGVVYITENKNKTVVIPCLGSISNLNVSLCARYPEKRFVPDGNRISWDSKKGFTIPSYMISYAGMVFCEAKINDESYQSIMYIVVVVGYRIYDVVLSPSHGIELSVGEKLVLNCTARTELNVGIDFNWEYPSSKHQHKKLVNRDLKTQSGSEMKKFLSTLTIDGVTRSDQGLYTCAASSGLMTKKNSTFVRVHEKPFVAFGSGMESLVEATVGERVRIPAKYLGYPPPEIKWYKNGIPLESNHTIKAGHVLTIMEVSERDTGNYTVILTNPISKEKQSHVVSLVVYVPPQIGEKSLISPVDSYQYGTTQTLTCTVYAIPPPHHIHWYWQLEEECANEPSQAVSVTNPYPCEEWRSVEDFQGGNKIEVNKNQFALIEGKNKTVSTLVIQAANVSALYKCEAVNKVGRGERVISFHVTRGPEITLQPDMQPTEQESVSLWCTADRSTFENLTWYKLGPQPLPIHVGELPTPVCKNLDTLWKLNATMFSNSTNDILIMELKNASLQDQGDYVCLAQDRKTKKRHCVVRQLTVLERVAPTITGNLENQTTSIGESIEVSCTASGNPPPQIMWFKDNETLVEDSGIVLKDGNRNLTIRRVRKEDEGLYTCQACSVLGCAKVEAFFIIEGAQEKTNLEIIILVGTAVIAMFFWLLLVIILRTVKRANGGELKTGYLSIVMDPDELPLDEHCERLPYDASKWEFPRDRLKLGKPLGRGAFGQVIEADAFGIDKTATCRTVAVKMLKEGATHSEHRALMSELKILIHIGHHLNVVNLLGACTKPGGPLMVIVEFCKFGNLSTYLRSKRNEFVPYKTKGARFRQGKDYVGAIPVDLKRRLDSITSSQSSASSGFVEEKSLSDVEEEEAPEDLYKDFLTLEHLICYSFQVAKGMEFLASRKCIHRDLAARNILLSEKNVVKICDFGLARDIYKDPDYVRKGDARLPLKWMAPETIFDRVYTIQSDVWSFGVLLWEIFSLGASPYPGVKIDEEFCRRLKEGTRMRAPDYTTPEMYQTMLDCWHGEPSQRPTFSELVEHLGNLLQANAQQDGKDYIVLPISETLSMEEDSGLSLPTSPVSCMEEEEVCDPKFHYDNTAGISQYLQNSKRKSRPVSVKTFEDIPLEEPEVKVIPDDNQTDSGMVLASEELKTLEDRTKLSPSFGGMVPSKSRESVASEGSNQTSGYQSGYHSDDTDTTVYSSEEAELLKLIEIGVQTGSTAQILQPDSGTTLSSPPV

| IC50 (VEGFR-2 tyrosine kinase) [µM] | inhibition at 10 µM (VEGFR-2 tyrosine kinase) [%] | melting point [°C] | Compound | IC50 (VEGFR-2; Figure 1, known VEGFR-2 kinase inhibitors, read-out: IC50) [µM] | IC50 (HCT-116) [µM] | IC50 (MCF-7) [µM] | IC50 (HepG-2) [µM] | % Cell growth (HUVEC) [%] | inhibition at 10 µM (HUVEC) [%] | IC50 (VEGFR-3) [µM] | IC50 (VEGFR-2; read-out: IC50 VEGFR-2) [µM] |
| --- | --- | --- | --- | --- | --- | --- | --- | --- | --- | --- | --- |
| – | – | – | c1ccc(Cc2cnc(N3CCN(c4ncnc5ccccc45)CC3)nc2)cc1 [(VI)] | 0.0034 | – | – | – | – | – | – | – |
| 4.4 | 70 | 236 to 238 | O=C(Nc1ccc(Cl)cc1)Nc1ccc(Nc2nnc(Cl)c3ccccc23)cc1 [Compound 12b, 1–(4-Chlorophenyl)-3–(4-(4-chlorophthalazin-1-ylamino)phenyl)urea] | – | 174 | 155 | 174 | 20.17 | 79.8 | – | – |
| 2.7 | 78 | 187 to 189 | O=C(Nc1ccc(Nc2nnc(Cl)c3ccccc23)cc1)Nc1ccc(Cl)c(C(F)(F)F)c1 [Compound 12c, 1–(4-Chloro-3-(trifluoromethyl)phenyl)-3–(4-(4-chlorophthalazin-1-ylamino)phenyl)-urea] | – | 724 | > 1000 | > 1000 | 27.42 | 72.6 | – | – |
| – | – | – | CNC(=O)c1cc(COc2nnc(Nc3ccc(Cl)cc3)c3ccoc23)ccn1 [Telatinib (V), telatinib] | – | – | – | – | – | – | 0.004 | 0.006 |
